Data published in patent US20170121293A1, “PROCESS FOR PREPARING A NOVEL CRYSTALLINE FORM OF METSULFURON-METHYL AND USE OF THE SAME” (ROTAM AGROCHEM INTERNATIONAL COMPANY LIMITED, priority 2015, published 2017).
Read-outs that look alike come from different tables or passages of the source.

Columns and labels:
[1] = assay type: physicochemical; conditions: for Concentration measured by HPLC after treatment: pH 7 buffer, test temperature e.g. 20° C.
Procedure: A stock pH 7 buffer solution was prepared by adding aqueous sodium hydroxide solution (0.1 M, 145 mL) to aqueous potassium dihydrogen phosphate solution (0.1 M, 250 mL), and then adding sufficient distilled water to adjust the final volume to 500 mL. At least 1 time and up to about 5 times the amount of metsulfuron-methyl needed for saturation was added to a mixing vessel containing stock buffer solution at the test temperature (e.g., 20° C.). The mixture was magnetically stirred in the dark while being maintained at the test temperature. Samples were periodically removed for analysis. The samples were centrifuged using a high speed, temperature-controlled centrifuge at the test temperature for about 20 minutes at >12000 G to remove suspended particles. An aliquot of each supernatant was taken for analysis. The concentration of metsulfuron-methyl in the supernatant was determined by a high pressure liquid chromatography (HPLC) with a reversed phase chromatography column and UV detection. The method should include development of best-fit calibration curves based on at least three standards using linear regression analysis Samples were successively withdrawn from the mixing vessel and analyzed until three successive samples show little or no variation in concentration. The test is preferably replicated to ensure accuracy.

[2] = Cleanout test (residue in polyethylene bottles extracted with acetonitrile); assay type: physicochemical; conditions: dispersed in tap water, stood overnight, lower = more effective cleanout
Procedure: The test was conducted by dispersing in water a sample to produce a concentration that is normally used when applying the herbicide: 25% metsulfuron-methyl. The sample was added to tap water (300 mL) in a 400 mL beaker and magnetically stirred for 2 minutes. The mixture was then stirred for 2 minutes, whereupon the resulting dispersion was dispensed in three 100 mL aliquots to 4-oz (118 mL) polyethylene bottles. The bottles were capped, inverted twice and allowed to stand overnight.
After standing overnight, each individual bottle was inverted twice and the liquid contents were then poured out. Tap water (10 mL) was added and the bottle was inverted until all sediment was re-suspended, whereupon the contents were poured out. Tap water (100 mL) was added and the bottle was inverted twice and then allowed to stand undisturbed for 10 minutes. The bottle was inverted twice more and the contents were poured out. Acetonitrile (10 mL) was added to the bottle to extract any remaining material. The acetonitrile solution was analyzed by reversed-phase liquid chromatography with UV detection. The cleanout rating (the concentration of metsulfuron-methyl herbicide in the acetonitrile solution) is reported in % in Table 6 below.

Viscosity when dissolved = assay type: physicochemical
weeds = experiment: Activity in controlling weeds; conditions: in vivo
[3] = OD formulation, original concentration 40%
[4] = SG formulation, original concentration 25%
[5] = WG formulation, original concentration 25%

| Compound | Concentration measured by HPLC after treatment [1, 3] | Concentration measured by HPLC after treatment [1, 4] | Concentration measured by HPLC after treatment [1, 5] | Cleanout rating (concentration of metsulfuron-methyl in the acetonitrile solution) ([2]; OD formulation) | Cleanout rating (concentration of metsulfuron-methyl in the acetonitrile solution) ([2]; SG formulation) | Cleanout rating (concentration of metsulfuron-methyl in the acetonitrile solution) ([2]; WG formulation) | Viscosity (in words) (Viscosity when dissolved; listed as metsulfuron-methyl in amorphous state) | Solubility (in words) [1] | Viscosity (in words) (Viscosity when dissolved; listed as crystalline modification I of metsulfuron-methyl) | Activity in controlling weeds (weeds) |
| --- | --- | --- | --- | --- | --- | --- | --- | --- | --- | --- |
| COC(=O)c1ccccc1S(=O)(=O)NC(=O)Nc1nc(C)nc(OC)n1 [Amorphous metsulfuron-methyl, methyl 2-[[[[(4-methoxy-6-methyl-1,3,5-triazin-2-yl)amino]carbonyl]amino]sulfonyl]benzoate, reference compound] | 14% | 15% | 12% | 26% | 10% | 13% | highly viscous |  |  |  |
| COC(=O)c1ccccc1S(=O)(=O)NC(=O)Nc1nc(C)nc(OC)n1 [Metsulfuron-methyl, crystalline modification I] [methyl 2-(4-methoxy-6-methyl-1,3,5-triazin-2-ylcarbamoylsulfamoyl)benzoate] | 35% | 24.9% | 23% | 5% | 0.1% | 2% |  | significant increase | significant decrease | active in controlling weeds |
